Experimental data published in the supplement of paper PMC10307832.

Experiments:
Test in all cases: relative viability (nuclei count vs DMSO), 5 days (fraction); higher = more cells survive
[1] = compound: CC1=CN=C(N=C1C2=CNC(=C2)C(=O)N[C@H](CO)C3=CC(=CC=C3)Cl)NC4=C(C=C(C=C4)F)Cl [VX-11e] + COc1cccc2cc(-c3nc([C@H]4CC[C@H](C(=O)O)CC4)n4ncnc(N)c34)[nH]c12 [OSI-027] (partner 0.5 µM)
Summary of the method: (§1)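 Cells from lung cancer lines were seeded into 1536-well plates and, one day later, dosed by pin tool. Treatments were either a single drug or a fixed dose of an anchor drug with five library-drug doses (not always all listed) in √10 steps. After 5 days, nuclei were stained in a one-step fixation (final 0.05% Triton X-100, 1% formaldehyde, 1 ug/ml Hoechst) and counted on 4× images, and relative viability is the treated-to-vehicle nuclei ratio, as the median of duplicate plates.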

[2] = compound: CC1=CN=C(N=C1C2=CNC(=C2)C(=O)N[C@H](CO)C3=CC(=CC=C3)Cl)NC4=C(C=C(C=C4)F)Cl [VX-11e] + C[C@]1(O)C[C@@H](c2nc(-c3ccc4ccc(-c5ccccc5)nc4c3)c3c(N)nccn32)C1 [Linsitinib] (partner 1 µM)
Summary of the method: as §1

[3] = compound: CC1=CN=C(N=C1C2=CNC(=C2)C(=O)N[C@H](CO)C3=CC(=CC=C3)Cl)NC4=C(C=C(C=C4)F)Cl [VX-11e] + CS(=O)(=O)CCNCc1ccc(-c2ccc3ncnc(Nc4ccc(OCc5cccc(F)c5)c(Cl)c4)c3c2)o1 [Lapatinib] (partner 2 µM)
Summary of the method: as §1

[4] = compound: CC1=CN=C(N=C1C2=CNC(=C2)C(=O)N[C@H](CO)C3=CC(=CC=C3)Cl)NC4=C(C=C(C=C4)F)Cl [VX-11e] + CC(=O)Nc1cccc(-n2c(=O)n(C3CC3)c(=O)c3c(Nc4ccc(I)cc4F)n(C)c(=O)c(C)c32)c1 [Trametinib] (partner 0.02 µM)
Summary of the method: as §1

Cell Line	relative viability ([1]; first compound 0.1265 µM)	relative viability ([1]; first compound 0.4 µM)	relative viability ([1]; first compound 1.265 µM)	relative viability ([1]; first compound 4 µM)	relative viability ([2]; first compound 0.04 µM)	relative viability ([2]; first compound 0.1265 µM)	relative viability ([2]; first compound 0.4 µM)	relative viability ([2]; first compound 1.265 µM)	relative viability ([2]; first compound 4 µM)	relative viability ([3]; first compound 0.04 µM)	relative viability ([3]; first compound 0.1265 µM)	relative viability ([3]; first compound 0.4 µM)	relative viability ([3]; first compound 1.265 µM)	relative viability ([3]; first compound 4 µM)	relative viability ([4]; first compound 0.04 µM)	relative viability ([4]; first compound 0.1265 µM)	relative viability ([4]; first compound 0.4 µM)	relative viability ([4]; first compound 1.265 µM)	relative viability ([4]; first compound 4 µM)	relative viability ([1]; first compound 0.04 µM)
HCC-78	0.364	0.395	0.376	0.393	0.584	0.5	0.541	0.403	0.382	1.37	0.884	0.944	0.384	0.526	0.827	0.651	0.632	0.559	0.387	
HCC-366	0.795		0.544	0.136	0.774	0.602		0.348	0.0744	1	0.971		0.879	0.759	0.353	0.344		0.289	0.187	0.811
HCC-827	0.797	0.74	0.977	0.44	0.967	0.934	0.975	1.12	0.859	0.191	0.229	0.206	0.205	0.207	0.555	0.568	0.454	0.549	0.274	0.762
HOP-62	0.715	0.569	0.464	0.372	0.903	0.773	0.973	0.831	0.226	1.14	0.979	0.776	0.27	0.526	0.381	0.428	0.296	0.179	0.151	0.633
IA-LM					0.694	0.516	0.469	0.132	0.142	0.71	0.945	0.853	0.17	0.126						
LC-2-ad	0.534	0.363	0.584	0.466	0.831	0.852	0.787	0.572	0.508	0.929	0.792	0.881	0.399	0.547	0.998	0.856	0.881	0.755	0.537	0.73
LCLC-97TM1	0.274	0.287	0.418	0.175	0.158	0.172		0.203	0.116	1.09	0.8		0.226	0.171	0.21	0.179	0.17		0.0986	0.494
LCLC-103H	0.458	0.43	0.402	0.344	1.24	0.985	0.954	0.857	0.836						0.67	0.633	0.689	0.628	0.558	0.461
LK-2	0.187	0.146	0.153	0.17	0.774	0.672	0.555	0.205	0.313		0.832	0.812	0.522	0.439	0.831	0.668	0.806	0.234	0.312	0.163
LOU-NH91	0.67	0.497	0.611	0.541	0.919	0.952		0.946	0.733	0.66	0.673		0.565	0.667	0.813	0.73		0.768	0.691	0.622
LU99A	0.324	0.249	0.286	0.256	0.539	0.456	0.623	0.42	0.207	1.03	0.913	0.864	0.253	0.235	0.504	0.316	0.421	0.272	0.258	0.257
LXF-289	0.58	0.174	0.517	0.358	0.995	0.88	0.958	0.801	0.686	0.895	0.869	0.879	0.772	0.634	0.729	0.652		0.626	0.498	0.686
NCI-H441	0.502		0.518	0.417	0.542	0.584		0.657	0.419						0.448	0.485		0.278	0.325	0.519
NCI-H522	0.683	0.556	0.613	0.572											0.684	0.773	0.618	0.645	0.589	0.615
NCI-H1299					1.08	0.944	0.942	0.682	0.36	0.984	0.953	1.1	0.918	0.559						
NCI-H1563	0.697	0.705	0.822	0.789	1.21	1.2	1.22	1.11	1.06	0.938	0.795	0.529	0.854	0.864						0.729
NCI-H1648	0.238	0.29	0.245	0.241												0.406	0.5	0.376	0.291	0.273
NCI-H1650	0.534		0.402	0.307						0.76	0.626	0.204	0.289	0.444	0.76	0.589	0.562	0.553	0.397	0.592
NCI-H1703					0.294	0.655		0.748	0.502	1.49	1.18		1.08	0.791						
NCI-H2170	0.624	0.155	0.649	0.453						0.229	0.259	0.231	0.243	0.252	0.805	0.913	0.89	0.854	0.819	0.589
NCI-H2342	0.592	0.637	0.539	0.56												0.741	0.765	0.858	0.823	0.505
SW 900	0.448	0.12	0.304	0.246											0.826	0.761		0.483	0.605	0.276
